Broadly, the Ki is the dissociation constant of the complex between target and ligand, obtained from inhibition or displacement. A high value points to weaker binding.

Each structure is given as a SMILES string. In brackets after ≈: the same amount, converted by molar mass.

The target in one data set is T1, HSV-TK extract (Human herpesvirus 1, UniProt P0DTH5).
T1 construct: HSV thymidine kinase (HSV TK) was isolated from HELA (BU25) cells infected with the SW148 strain of HSV-1; made in house; host or cells: HeLa (BU25) thymidine-kinase-deficient cells infected with HSV-1 strain S148/SW148
Put plainly: Phosphorylated products formed by HSV-TK extract, SAX HPLC. Conditions: for DPM di / DPM mono / DPM nucleoside / DPM total / DPM tri: 10 µM [3H] compound, 2 hours; for major phosphorylated derivative: 50 µM, 60 minutes at 37°C, Fig. 3. Format: biochemical, HSV-1. The protocol:
HSV thymidine kinase activity was measured in 200 µl volumes containing HSV-TK extract obtained as described previously (Belzarini et al., supra), 5.0 mM ATP, 5 mM MgCl2, 9 mM potassium fluoride, 11.2 µg phosphoenol pyruvate, 5 µg of pyruvate kinase, 10 mM β-mercaptoethanol and either 50 µM [3H]-D-, L, or no drug for 60 minutes at 37°C. The reaction was stopped with perchloric acid (PCA), neutralized with potassium bicarbonate, and the reaction products were analyzed by SAX HPLC. The UV absorption spectra of selected peaks were determined with a rapid spectral detector (LKB, Gaithersburg, MD). […] The amount of monophosphate derived from L-2'CdG was about the same as the amount of triphosphate derived from D-2'CdG, and confirmed the results of the disk assay.
HSV extracts were also incubated with 10 µM of either [^3H]-D- or L-2'Cdg, as described above, to measure the metabolism of these entantiomers. After 2 hours the reaction was stopped with perchloric acid (PCA), neutralized with potassium bicarbonate, and the acid-soluble metabolites were separated using SAX HPLC as described above. The results are summarized below.: TABLE 3

A further data set relates to HSV-1 (strain 377, TK+). Put plainly: Antiviral activity against HSV-1. Particulars: for VR / EC50: HSV-1, range of tests; for EC50: Human alphaherpesvirus 1, read-out: Mic50. The format is cell-based. The method, then:
(§1) D-2'-CdG and L-2'-CdG were tested, alongside D,L-2'-CdG, against both HSV-1 (strain 377, TK+; obtained from Dr. Earl Kern, University of Alabama) and HSV-2 (strain MS, TK+; also obtained from Dr. Earl Kern). In these tests (Table 5), Ara-A and acyclovir (ACV) were the positive control drugs. In four tests vs. HSV-1, the antiviral activity (VR) and potency (MIC50) of D-2'-CdG were approximately the same as those of racemic 2-CdG. L-2'-CdG was only modestly active.

Another data set relates to CCRF-CEM cells. Briefly: Phosphorylation in uninfected CCRF-CEM cells, effects of dCyd and mycophenolic acid. Format: cell-based. Conditions: for increase in the phosphates in the presence of mycophenolic acid / reduction of the amount of phosphates in the presence of dCyd: Fig. 6; for reduction of the amount of phosphates in the presence of dCyd: calculated from the radioactivity in the peaks. The method, then: (§2) While these findings are similar to those obtained with the isolated viral kinase, they differ from the resulted with the isolated enzyme in that relatively more di- and triphosphate were formed from L-2'CdG.
Identity of the cellular enzyme(s) responsible for the phosphorylation of the enantiomers of 2'CdG. […] 36:291, 1989). To determine if dCyd kinase was involved, studies were carried out in which cells were indubated with D- or L-2'CdG and dCyd, and the formation of phosphates was monitored by HPLC. […] The presence of mycophenolic acid produced an increase in the phosphates of D- or L-2'CdG of 2.5-fold and 1.4-fold, respectively.

Another data set has as its target T2, HSV-1 TK (Human herpesvirus 1, UniProt P0DTH5).
T2 construct: HSV thymidine kinase (HSV TK) was isolated from HELA (BU25) cells infected with the SW148 strain of HSV-1; made in house; host or cells: HeLa (BU25) thymidine-kinase-deficient cells infected with HSV-1 strain S148/SW148
Briefly: Competitive inhibition of [3H]-thymidine phosphorylation by partially purified HSV-1 TK. Format: biochemical. The protocol: The Ki's were determined from a plot of the slope of each line versus the concentration of the competitor (D-, L, or D,L-2'CdG) and are summarized below: TABLE 2

In data set [1] the test system is H.Ep.-2 cells infected with HSV-1. Put plainly: Metabolism in HSV-1-infected H.Ep.-2 cells, SAX HPLC. The format is cell-based, human. Conditions: H.Ep.-2 cells infected with HSV-1, 8 hours, Fig. 4. The method, then: The in vivo metabolism of D- and L-2'CdG was also measured in HSV-[TK+]-infected, HSV-[TK-]-infected and mock infected H.Ep.-2 cells (human epidermal carcinoma cells, ATCC CCL23). Uninfected and infected cells were incubated in fresh medium containing 2 µCi/ml of either [^3H]-D- or L-2'CdG, as described above, to measure the metabolism of these enantiomers. After 8 hours the cells were harvested and washed free of medium with PBS, and extracts were prepared with cold 0.5 N perchloric acid for 0.5 hr. The extract was then neutralized with potassium bicarbonate and the resulting precipitate was removed by centrifugation. The supernatant was lyophilized to dryness and the acid-soluble metabolites were separated using SAX HPLC as described above.
as §2

In the next data set the test system is HSV-2 (strain MS, TK+). Briefly: Antiviral activity against HSV-2. The format is cell-based. Particulars: HSV-2. The method, then:
as §1
These compounds were tested against HSV-2(TK^+). The VR of ACV was somewhat higher than the VR values of D-2'-CdG and D,L-2'-CdG, but the values of MIC50 of the two forms of 2'-CdG were lower. In addition, experiments comparing the antiviral activity D-2'-CdG with acyclovir against HSV-1 in human foreskin fibroblasts have shown an even greater potency, in favor of D-2'-CdG.

T1 sequence (P0DTH5 whole entry): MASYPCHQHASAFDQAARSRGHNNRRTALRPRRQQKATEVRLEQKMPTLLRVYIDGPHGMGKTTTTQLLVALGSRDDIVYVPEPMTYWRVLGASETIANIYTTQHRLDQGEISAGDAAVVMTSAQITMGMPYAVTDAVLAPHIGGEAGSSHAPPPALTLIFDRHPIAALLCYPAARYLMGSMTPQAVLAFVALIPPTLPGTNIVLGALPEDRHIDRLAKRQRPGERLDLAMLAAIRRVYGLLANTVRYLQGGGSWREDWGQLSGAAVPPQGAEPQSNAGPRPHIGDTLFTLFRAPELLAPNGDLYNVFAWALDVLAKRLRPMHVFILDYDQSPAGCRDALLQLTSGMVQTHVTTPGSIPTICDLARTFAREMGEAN
T2 sequence (P0DTH5 whole entry): as above

On HSV-TK extract, `Nc1nc2c(ncn2[C@@H]2C[C@H](CO)[C@@H](O)C2)c(=O)[nH]1` [D-2'-CdG, [1R,3S,4R-(1α,3β,4α)]-D-2-Amino-1,9-dihydro-9-[3-hydroxy-4-(hydroxymethyl)cyclopentyl]-6H-purin-6-one] yielded a DPM di of 2427 DPM, a DPM mono of 2138 DPM, a DPM nucleoside of 38555 DPM and a DPM total of 128000 DPM. At HSV-TK extract, the DPM tri came to 85073 DPM and the major phosphorylated derivative entry is “the triphosphate”. For the same compound, in the data set with HSV-1 (strain 377, TK+), the VR is recorded as 4.8-6.3 and the EC50 was in the range of 0.1 to 0.3 µg/mL (≈ 0.377 to 1.13 µM). In the data set with HSV-1 (strain 377, TK+) (more potent than ACV), the “potency relative to ACV” value is 5-10 times. Besides, in the data set with CCRF-CEM cells, the “increase in the phosphates in the presence of mycophenolic acid” value was determined as 2.5 fold and the “reduction of the amount of phosphates in the presence of dCyd” value is recorded as 80-90%. The predominant metabolite entry with CCRF-CEM cells (uninfected CEM cells, Fig. 5) is “the triphosphate”. Further, the affinity at HSV-1 TK, expressed as Ki, was 2.1 µM. The principal soluble metabolite entry in data set [1] is reported as “the triphosphate”. Moreover, the VR in the data set on HSV-2 (strain MS, TK+) was 3.8. In addition, the EC50 in the data set with HSV-2 (strain MS, TK+) (Human alphaherpesvirus 2, read-out: Mic50) was 0.7 µg/mL (≈ 2.64 µM).
In the case of `Nc1nc2c(ncn2[C@H]2C[C@@H](CO)[C@H](O)C2)c(=O)[nH]1` [L-2'-CdG, [1S,3R,4S-(1α,3β,4α)]-L-2-Amino-1,9-dihydro-9-[3-hydroxy-4-(hydroxymethyl)cyclopentyl]-6H-purin-6-one], at HSV-TK extract, the DPM di worked out at 2050 DPM, the DPM mono is listed as 115000 DPM, the DPM nucleoside came to 40944 DPM and the DPM total amounted to 158000 DPM. For the same compound, at HSV-TK extract, the DPM tri is 410 DPM and the major phosphorylated derivative result is recorded as “primarily to the monophosphate form”. In addition, in the data set with HSV-1 (strain 377, TK+), the VR is given as 0.8-2.4 and the EC50 is 39 to 257 µg/mL (≈ 147 to 969 µM). In the data set with CCRF-CEM cells, the “increase in the phosphates in the presence of mycophenolic acid” value was determined as 1.4 fold and the “reduction of the amount of phosphates in the presence of dCyd” value is reported as 80-90%. Also, in the data set on CCRF-CEM cells (uninfected CEM cells, Fig. 5), the predominant metabolite entry is “the monophosphate” and the “total amount of phosphates formed, relative to D-2'CdG” value is “about twice that formed from D-2'CdG”. The compound further displayed a Ki at HSV-1 TK of 3.4 µM. In data set [1], the principal soluble metabolite entry was “the monophosphate”. In the data set with HSV-2 (strain MS, TK+), this compound registered a VR of 0.
